Key:
human topoisomerase I = molecular target: T1, human topoisomerase I (Homo sapiens, UniProt P11387); assay: Topoisomerase I DNA cleavage test on radiolabelled duplex; format: biochemical; details: in vitro, free inhibitors
T1 construct: purchased Invitrogen Inc
T1 sequence (P11387 1-765): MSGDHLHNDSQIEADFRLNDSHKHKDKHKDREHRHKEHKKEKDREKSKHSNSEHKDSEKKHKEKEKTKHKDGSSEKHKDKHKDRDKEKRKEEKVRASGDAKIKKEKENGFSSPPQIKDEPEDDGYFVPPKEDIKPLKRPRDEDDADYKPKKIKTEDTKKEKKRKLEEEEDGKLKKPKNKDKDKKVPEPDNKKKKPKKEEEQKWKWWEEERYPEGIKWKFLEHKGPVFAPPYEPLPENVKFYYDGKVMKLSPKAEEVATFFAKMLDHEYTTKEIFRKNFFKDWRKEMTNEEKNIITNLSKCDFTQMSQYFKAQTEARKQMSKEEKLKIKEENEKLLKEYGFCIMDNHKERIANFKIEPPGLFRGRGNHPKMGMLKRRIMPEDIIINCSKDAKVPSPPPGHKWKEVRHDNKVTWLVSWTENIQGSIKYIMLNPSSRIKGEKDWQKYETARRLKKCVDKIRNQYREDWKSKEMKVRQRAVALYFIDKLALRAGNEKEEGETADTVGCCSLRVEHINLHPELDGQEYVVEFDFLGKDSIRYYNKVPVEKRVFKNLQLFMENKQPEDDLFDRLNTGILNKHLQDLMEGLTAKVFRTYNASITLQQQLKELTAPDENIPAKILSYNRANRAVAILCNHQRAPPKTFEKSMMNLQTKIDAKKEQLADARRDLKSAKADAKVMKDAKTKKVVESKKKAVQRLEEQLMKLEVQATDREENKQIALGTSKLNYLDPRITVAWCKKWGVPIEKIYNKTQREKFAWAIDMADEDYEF
Method: The radiolabelled 324-bp duplex in position 3′ on the oligopyrimidine strand (well 1) was incubated with topoisomerase I in the presence of three camptothecin derivatives (wells 2-4, 10CPT, 7CPT, SCPT), or of these three derivatives conjugated with TFO 16 (wells 5-7, TFO16-L4-10CPT, TFO16-L6-CPT, TFO16-L3-SCPT). The cleavage sites are indicated by letters and the binding site of the conjugate is shown diagrammatically. L3=diaminopropynyl; L4=diaminobutyl, L6=diaminohexyl; after incubation, the protein is digested by a treatment with SDS/proteinase K and the cleavage products are analysed on a denaturating gel;
The radiolabelled duplexes (50 nM) are incubated for 1 hour at 30° C., in 50 mM. […] After ethanol precipitation, all the samples are re-suspended in 6 μl of formamide, heated to 90° C. for 4 minutes and cooled again on ice for 4 mins, before being deposited on 8% and 10% denaturing polyacrylamide gel [19/1 acrylamide:bisacrylamide], for the long and short targets respectively, containing 7.5 M urea in 1× TBE buffer (50 mM Tris-HCl, 55 mM boric acid, 1 Mm EDTA), In order to quantify the cleavage intensity, the gels are scanned with a Dynamics 445SI Phosphorimager. […]
The cleavage specificity of the conjugates was measured in vitro by a standard topoisomerase I cleavage test. […]

[1] = molecular target: T2, DNA/topo I cleavage complexes (Homo sapiens, UniProt P11387); assay: Formation of DNA/topo I cleavage complexes in HeLa nuclei followed by immunoblot (CsCl gradient, Western slot blot); format: cell-based; details: 3 h at 37° C., 5 μM (FIG. 8)
T2 construct: HeLa nucleus cells (5000000) were prepared and incubated 3 h at 37° C. with the topoisomerase I poison; endogenous in cells; host or cells: HeLa nuclei
T2 sequence (P11387 1-765): T1 sequence (P11387 1-765)
Method: FIG. 8 gives correlation results of the biological effects with the formation of DNA/topo I/CPT complexes: the formation of the complexes in the cells was followed by immunoblot.
In the experiments corresponding to FIG. 8, HeLa nucleus cells (5000000) were prepared and incubated 3 h at 37° C. with the topoisomerase I poison free (CPT or ST1578) or coupled to oligonucleotide (TFO-L4-10CPT or TFO-ST1578 or LNA-ST1578), or with a control oligonucleotide (TFO-NH2 or TFO-NPh2) at various concentration (in FIG. 8 at 5 μM). After adding of sarkosyl, the lysates were ultracentrifugated 16 h on a gradient of CsCl. 12 fractions were recovered and analysed by Western slot blot to show the fractions containing topoisomerase I (in 1-4 for the untreated control (mock)).
The fractions containing the DNA were identified by measuring absorbance at 260 nm (fractions 8-10).

SMILES	stimulation of DNA cleavage by topoisomerase 1 compared with 7-aminoethyl-camptothecin (human topoisomerase I)	fractions of the CsCl gradient containing topoisomerase I (stabilisation of DNA/topo I cleavage complexes) [1]
CC[C@@]1(O)C(=O)OCc2c1cc1n(c2=O)Cc2cc3cc(C(=O)O)ccc3nc2-1 [10-carboxycamptothecin, 20S-10-carboxycamptothecin]	more effectively	
CC[C@@]1(O)C(=O)OCc2c1cc1n(c2=O)Cc2cc3ccccc3nc2-1 [CPT, camptothecin]		observed only in fractions containing DNA
CC[C@@]1(O)C(=O)OCc2c1cc1n(c2=O)Cc2c-1nc1ccccc1c2C=NCCN [ST1578, 20S-7-aminoethyliminomethylcamptothecin]		observed only in fractions containing DNA

— patent US20080108581A1, “Compounds and Their Use for Specific and Simultaneous Inhibition of Genes Involved In Diseases and Related Drugs” (INSTITUT NATIONAL DE LA SANTE ET DE LA RECHERCHE MEDICAL …, priority 2003, published 2008)
